These results are taken from publication PMC9079931 (RSC Advances, 2018).

Structures are written as SMILES.

For series [1] the following is noted: cited from earlier work.
For series [2] the following is noted: cited from earlier work. The source holds these as a separate data set.
In series [3] the test system is human colon cancer cell line Caco-2. Description: In vitro cytotoxicity, MTT assay. Type of series: cell-based. To be noted: Caco-2, 24 h, 0.001–100 μg ml^−1. For orientation: Formazan colour is commonly taken as a measure of viable cells.
For series [4] the following is noted: cited from earlier work. The source holds these as a separate data set.

With `N#CC(c1ccc(Cl)cc1)c1c(Cl)cc(-n2ncc(=O)[nH]c2=O)cc1Cl` (stereo not shown) [DIC, Diclazuril], the Acute toxicity entry in series [1] is on record as “low acute toxicity”. For the same compound, the “Solubility of DIC in water” value in series [2] is 0.69 µg/mL. Further, the “Cell viability of Caco-2 cells versus concentration” value in series [3] was “gradually decreased with the increase of free drug concentration”.

Take `OB(O)c1ccccc1` [phenylboronic acid]: the “Oral acute toxicity dose” value in series [4] is on record as “higher than 900 mg kg^−1 body weight”.
